Structures can show the parent of a compound that is named as a salt.
Target: T1, N-terminal 6His-tagged ROCK2 catalytic domain 11-552 (Homo sapiens, UniProt O75116)
T1 construct: N-terminal 6His-tagged ROCK2 catalytic domain 11-552; 6His (N); purchased Dundee University, UK; host or cells: baculovirus expression system
Assay: ROCK2 binding activity: ROCK2 inhibition, ADP-Glo Kinase Assay
Type: biochemical
Conditions: 1.25 nM ROCK2, 100 μM long S6 peptide, 20 μM ATP; 1 hour pre-incubation; read-out: ADP-Glo kinase activity assay ROCK2 Category
In short: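 1.25 nM baculovirus-expressed ROCK2 pre-incubated 1 h with compound (1% DMSO), then 100 μM long S6 peptide and 20 μM ATP added for 1 h; 50 mM HEPES pH 7.5, 10 mM Mg acetate, 1 mM DTT. ADP-Glo luminescence; IC50 from four-parameter logistic fit.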

T1 sequence (O75116 11-552): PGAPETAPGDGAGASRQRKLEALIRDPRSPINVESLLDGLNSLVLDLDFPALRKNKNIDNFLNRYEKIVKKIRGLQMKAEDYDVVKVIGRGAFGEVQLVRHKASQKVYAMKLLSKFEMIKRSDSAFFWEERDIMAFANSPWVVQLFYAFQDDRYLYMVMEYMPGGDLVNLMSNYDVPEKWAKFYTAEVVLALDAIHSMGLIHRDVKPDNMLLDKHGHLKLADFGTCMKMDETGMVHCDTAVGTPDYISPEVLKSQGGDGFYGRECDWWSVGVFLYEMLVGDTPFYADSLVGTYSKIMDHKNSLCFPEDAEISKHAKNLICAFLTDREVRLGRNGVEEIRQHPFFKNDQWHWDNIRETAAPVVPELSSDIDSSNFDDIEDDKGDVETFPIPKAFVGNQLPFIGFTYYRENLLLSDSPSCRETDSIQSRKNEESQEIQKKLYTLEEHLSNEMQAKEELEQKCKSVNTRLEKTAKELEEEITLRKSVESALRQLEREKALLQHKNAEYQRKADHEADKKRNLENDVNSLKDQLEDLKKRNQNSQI

SMILES	IC50
CC(C)NC(=O)NCCOc1ccc(-c2nnc(Nc3ccc4[nH]ncc4c3)[nH]2)cc1 [Example 224, 1-[2-[4-[5-(1H-indazol-5-ylamino)-4H-1,2,4-triazol-3-yl]phenoxy]ethyl]-3-isopropyl-urea dihydrochloride]	< 300 nM
O=C(COc1ccc(-c2nnc(Nc3ccc4[nH]ncc4c3)[nH]2)cc1)NC1CCNC1 (stereo not shown) [Example 156]	< 300 nM
CCNC(=O)c1ccc(-c2nc(Nc3ccc4[nH]ncc4c3Cl)n(C)n2)cc1Cl [Example 254]	300 to 3000 nM
CC(C)C[C@@H](CO)NC(=O)c1ccc(-c2nc(Nc3ccc4[nH]ncc4c3C3CC3)n(C)n2)cc1 [Example 309]	< 300 nM
COc1cc(-c2nc(Nc3ccc4[nH]nc(Cl)c4c3)n(C)n2)ccc1C(=O)NCC(F)(F)F [Example 429]	< 300 nM
Cc1cc(OCC(=O)NC(C)C)ccc1-c1nc(Nc2ccc3[nH]ncc3c2)n(C)n1 [Example 401]	< 300 nM
CCn1nc(-c2ccc(C(=O)NCC(F)(F)F)c(OC)c2)nc1Nc1ccc2[nH]ncc2c1C [Example 457]	< 300 nM
Cc1cc(-c2nc(Nc3ccc4[nH]ncc4c3C3CC3)n(C)n2)ccc1C(=O)NCC(F)(F)F [Example 276]	< 300 nM
CCNC(=O)c1ccc(-c2nc(Nc3ccc4[nH]ncc4c3)n(C)n2)cc1C#N [Example 412]	< 300 nM
Cn1nc(-c2cccc(C(=O)NC3CC3)c2)nc1Nc1ccc2[nH]ncc2c1Cl [Example 269]	< 300 nM
CC(C)NC(=O)OCc1ccc(-c2nnc(Nc3ccc4[nH]ncc4c3)[nH]2)cc1 [Example 34]	< 300 nM
CCn1nc(-c2ccc(C(=O)NCC(F)(F)F)c(OC)c2)nc1Nc1ccc2[nH]ncc2c1C1CC1 [Example 441]	< 300 nM
COc1cc(-c2nc(Nc3ccc4[nH]ncc4c3C)n(C)n2)ccc1C(=O)NC(C)C [Example 179]	< 300 nM
Cn1nc(-c2ccc3c(c2)CCNC3=O)nc1Nc1ccc2[nH]ncc2c1Cl [Example 364]	< 300 nM
CCNC(=O)c1ccc(-c2nc(Nc3ccc4[nH]ncc4c3)n(C)n2)c(Cl)c1 [Example 327]	< 300 nM
Cn1nc(C2=CCC(N)CC2)nc1Nc1ccc2[nH]ncc2c1Cl (stereo not shown) [Example 84]	> 10000 nM
COc1cc(-c2nc(Nc3ccc4[nH]ncc4c3Cl)n(CC(C)C)n2)ccc1C(=O)NCC(F)(F)F [Example 437]	< 300 nM
CC(C)NC(=O)COc1cccc(-c2nnc(Nc3ccc4[nH]ncc4c3)[nH]2)c1 [Example 6]	< 300 nM
COc1cc(-c2nc(Nc3ccc4[nH]ncc4c3Cl)n(C)n2)ccc1OCC(=O)NC1CCOC1 (stereo not shown) [Example 51]	< 300 nM
COc1cc(-c2nc(Nc3ccc4[nH]ncc4c3Cl)n(C)n2)ccc1OCC(=O)NC(C)(C)CO [Example 205]	< 300 nM
COCCn1nc(-c2ccc(C(=O)NCC(F)(F)F)cc2)nc1Nc1ccc2[nH]ncc2c1C [Example 453]	< 300 nM
Cn1nc(-c2ccc(C(=O)NC3CC3)cc2)nc1Nc1ccc2[nH]ncc2c1C1CC1 [Example 344, N-Cyclopropyl-4-[5-[(4-cyclopropyl-1H-indazol-5-yl)amino]-1-methyl-1,2,4-triazol-3-yl]benzamide]	< 300 nM
Cn1nc(-c2ccc3c(c2)CCN(C(=O)C(C)(C)C)C3)nc1Nc1ccc2[nH]ncc2c1Cl [Example 371]	< 300 nM
COc1cc(-c2nc(Nc3ccc4[nH]ncc4c3)n(C)n2)ccc1C(=O)NC(C)(C)C [Example 170]	< 300 nM

SMILES	IC50
CCNC(=O)c1ccc(-c2nc(Nc3ccc4[nH]ncc4c3C3CC3)n(C)n2)c(OC)c1 [Example 279]	< 300 nM
CCc1c(Nc2nc(-c3ccc(C(=O)NC4CCC(F)(F)C4)cc3)nn2C)ccc2[nH]ncc12 (stereo not shown) [Example 319]	< 300 nM
CC(C)NC(=O)CCc1ccc(-c2nnc(Nc3ccc4[nH]ncc4c3)[nH]2)cc1 [Example 20]	300 to 3000 nM
Cn1nc(-c2ccc(C(=O)NC3CCCCC3O)cc2)nc1Nc1ccc2[nH]ncc2c1C1CC1 (stereo not shown) [Example 305]	< 300 nM
CC(C)NC(=O)NCc1ccc(-c2nnc(Nc3ccc4[nH]ncc4c3)[nH]2)cc1 [Example 41]	3000 to 10000 nM
COc1cc(-c2nc(Nc3ccc4[nH]ncc4c3Cl)n(C)n2)ccc1C(=O)NC1CC1 [Example 195]	< 300 nM
COc1cc(-c2nc(Nc3ccc4[nH]ncc4c3Cl)n(C)n2)ccc1OCC(=O)NC1CCC(O)CC1 (stereo not shown) [Example 212]	< 300 nM
CC(C)Oc1ccc(-c2nc(Nc3ccc4[nH]ncc4c3Cl)n(C)n2)cn1 [Example 103]	< 300 nM
Cn1nc(-c2ccc3c(c2)OCCC3O)nc1Nc1ccc2[nH]ncc2c1Cl (stereo not shown) [Example 234, 7-[5-[(4-chloro-1H-indazol-5-yl)amino]-1-methyl-1,2,4-triazol-3-yl]chroman-4-ol]	300 to 3000 nM
CCNC(=O)c1ccc(-c2nc(Nc3ccc4[nH]ncc4c3Cl)n(C)n2)cc1 [Example 253]	< 300 nM
COc1cc(-c2nc(Nc3ccc4[nH]ncc4c3)n[nH]2)ccc1OCC(=O)NC1CN(C(C)=O)C1 [Example 227, N-(1-acetylazetidin-3-yl)-2-[4-[5-(1H-indazol-5-ylamino)-4H-1,2,4-triazol-3-yl]-2-methoxy-phenoxy]acetamide]	300 to 3000 nM
COc1cc(-c2nnc(Nc3ccc4[nH]ncc4c3)[nH]2)ccc1OCC(=O)NC(C)C [Example 8]	< 300 nM
COc1cc(-c2nc(Nc3ccc4[nH]ncc4c3Cl)n(C)n2)ccc1OCC(=O)N[C@@H](C)C(F)(F)F [Example 218]	< 300 nM
Cn1nc(-c2ccc3c(c2)CNCC3)nc1Nc1ccc2[nH]ncc2c1C1CC1 [Example 389]	3000 to 10000 nM
COCc1cccc(-c2nc(Nc3ccc4[nH]ncc4c3Cl)n(C)n2)c1 [Example 113]	> 10000 nM
COc1cc(-c2nc(Nc3cc4cn[nH]c4cc3Cl)n(C)n2)ccc1C(=O)NCC(F)(F)F [Example 144]	3000 to 10000 nM
Cn1nc(-c2ccc(C(=O)N3CCNC(C(F)(F)F)C3)cc2)nc1Nc1ccc2[nH]ncc2c1C1CC1 (stereo not shown) [Example 307]	300 to 3000 nM
Cc1cc(-c2nc(Nc3ccc4[nH]ncc4c3)n(C)n2)ccc1OCC(=O)NC(C)C [Example 396]	< 300 nM
Cn1nc(-c2ccc(C(N)=O)cc2)nc1Nc1ccc2[nH]ncc2c1Cl [Example 131]	< 300 nM
O=C(NCC(F)(F)F)c1ccc(-c2nc(Nc3ccc4[nH]ncc4c3C3CC3)n(C3CCNCC3)n2)cc1 [Example 442]	< 300 nM
CCNC(=O)c1cc(F)c(-c2nc(Nc3ccc4[nH]ncc4c3Cl)n(C)n2)c(F)c1 [Example 359]	300 to 3000 nM
Cn1nc(-c2ccco2)nc1Nc1ccc2[nH]ncc2c1Cl [Example 96]	300 to 3000 nM
Cn1nc(-c2ccc(C(=O)NC3(CO)CC3)cc2)nc1Nc1ccc2[nH]ncc2c1C1CC1 [Example 293]	< 300 nM
Cc1c(Nc2nc(-c3ccc(C(=O)NCC(F)(F)F)cc3)nn2C)ccc2[nH]ncc12 [Example 421]	< 300 nM

SMILES	IC50
COc1cc(-c2nc(Nc3cc(Cl)c4[nH]ncc4c3)n(C)n2)ccc1C(=O)NC(C)C [Example 271]	< 300 nM
COc1cc(-c2nc(Nc3ccc4[nH]ncc4c3C)n(C)n2)ccc1C(=O)NC1CC1 [Example 182]	< 300 nM
COC(=O)CNC(=O)c1ccc(-c2nc(Nc3ccc4[nH]ncc4c3C3CC3)n(C)n2)cc1 [Example 296]	300 to 3000 nM
CC(C)NC(=O)COc1ccc(-c2nc(Nc3ccc4[nH]ncc4c3Cl)n(C)n2)cc1Cl [Example 472]	< 300 nM
COc1cc(-c2nc(Nc3ccc4[nH]ncc4c3Cl)n(C)n2)ccc1OCC(=O)NC1CNC1 [Example 48]	< 300 nM
Cn1nc(-c2ccc(C(N)C(F)(F)F)cc2)nc1Nc1ccc2[nH]ncc2c1C1CC1 (stereo not shown) [Example 384]	300 to 3000 nM
COc1cc(-c2nc(Nc3ccc4[nH]ncc4c3Cl)n(C)n2)ccc1OCC(=O)NCC(C)(C)O [Example 207]	< 300 nM
Cn1nc(-c2ccc3c(c2)CCNC3)nc1Nc1ccc2[nH]ncc2c1Cl [Example 237, 4-Chloro-N-[2-methyl-5-(1,2,3,4-tetrahydroisoquinolin-6-yl)-1,2,4-triazol-3-yl]-1H-indazol-5-amine]	300 to 3000 nM
COc1cc(-c2nc(Nc3ccc4[nH]ncc4c3C)n(C)n2)cnc1C(=O)NC1CC1 [Example 420]	300 to 3000 nM
COc1cc(-c2nc(Nc3ccc4[nH]ncc4c3C)n(CC(C)C)n2)ccc1OCC(=O)NC(C)C [Example 452]	< 300 nM
CCNC(=O)c1ccc(-c2nc(Nc3ccc4[nH]ncc4c3)n(C)n2)cc1OC [Example 168]	< 300 nM
CCc1cc(-c2nnc(Nc3ccc4[nH]ncc4c3)[nH]2)ccc1OCC(=O)NC(C)C [Example 42]	< 300 nM
COc1cc(-c2nc(Nc3ccc4[nH]ncc4c3C)n(C(C)C)n2)ccc1OCC(=O)NC(C)C [Example 450]	< 300 nM
Cn1nc(-c2ccc3c(c2)CCNC3=O)nc1Nc1ccc2[nH]ncc2c1C1CC1 [Example 377]	< 300 nM
Cn1nc(-c2ccc(C(=O)NC3(C)CC3)c(Cl)c2)nc1Nc1ccc2[nH]ncc2c1Cl [Example 255]	300 to 3000 nM
CCc1c(Nc2nc(-c3ccc(C(=O)NC(C)C(F)(F)F)cc3)nn2C)ccc2[nH]ncc12 (stereo not shown) [Example 322]	< 300 nM
COc1cc(-c2nc(Nc3ccc4[nH]ncc4c3C)n(C)n2)ccc1C(=O)NCCN(C)C [Example 329]	3000 to 10000 nM
Cn1nc(-c2ccc(CO)cc2)nc1Nc1ccc2[nH]ncc2c1Cl [Example 88]	300 to 3000 nM
CC(C)NC(=O)COc1ccc(-c2nc(Nc3ccc4[nH]ncc4c3)n(C)n2)cc1C#N [Example 400]	< 300 nM
COc1cc(-c2nc(Nc3ccc4[nH]ncc4c3Cl)n(C)n2)ccc1OCC(=O)NC1(CO)CCCC1 [Example 50]	< 300 nM
COCCn1nc(-c2ccc(C(=O)NC3CC3)cc2)nc1Nc1ccc2[nH]ncc2c1C1CC1 [Example 440]	< 300 nM
CCNC(c1ccc(-c2nc(Nc3ccc4[nH]ncc4c3C3CC3)n(C)n2)cc1)C(F)(F)F (stereo not shown) [Example 386]	300 to 3000 nM
